Source: patent US9023789B2, “Amylin analogs and pharmaceutical compositions thereof” (Novo Nordisk A/S, priority 2012, dated 2015)
Numbered stars: 1 amine (or outer) side, 2 acyl side, 3 side chain; on linkers, the order of the positions; unused ones are H or OH. Bridge positions count the residues as written; N and C are the ends. Peptide text beside a SMILES is read from it. * marks the point of attachment. C20 diacid = O=C(O)CCCCCCCCCCCCCCCCCCC(=O)*; γGlu = O=C(O)[C@H](CCC(=O)[*:2])N[*:1]

Tests used:
[1] = biological target: T1, human amylin 3(a) receptor (human calcitonin receptor + RAMP-3) in BHK570 cells (Homo sapiens, UniProt O60896+P30988); experiment: ASSAY (II)a functional assay, human amylin receptor (CRE luciferase); assay type: cell-based
T1 construct: expressed in transfected cells
Outline: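 Functional agonism was measured by CRE-luciferase reporter luminescence in BHK cells bearing calcitonin receptor, or calcitonin receptor plus RAMP-3 as the amylin 3(a) receptor. Stimulation lasted 3 hours at 37° C.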

[2] = ASSAY (III) ThT fibrillation assay for physical stability; assay type: physicochemical
Outline: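 Physical stability scored by ThT fluorescence (444 nm excitation, 485 nm emission) tracked every 20 min during 37 °C incubation with 960 rpm shaking, ThT at 1 μM final. Values are replicate means with SD at chosen times; HPLC against pramlintide standard gives initial and post-assay soluble concentrations.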

[3] = hCTR funct. EC50 divided by hAmylin-R funct. EC50
[4] = hCTR funct. EC50 over hAmylin-R funct. EC50
[5] = human functional selectivity: hCTR funct. EC50 / hAmylin-R funct. EC50

T1 sequence (O60896 24-148): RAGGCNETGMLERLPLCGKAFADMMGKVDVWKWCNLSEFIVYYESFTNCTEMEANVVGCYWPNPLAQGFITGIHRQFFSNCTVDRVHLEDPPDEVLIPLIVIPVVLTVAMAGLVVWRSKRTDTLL
T1 sequence (P30988 25-474): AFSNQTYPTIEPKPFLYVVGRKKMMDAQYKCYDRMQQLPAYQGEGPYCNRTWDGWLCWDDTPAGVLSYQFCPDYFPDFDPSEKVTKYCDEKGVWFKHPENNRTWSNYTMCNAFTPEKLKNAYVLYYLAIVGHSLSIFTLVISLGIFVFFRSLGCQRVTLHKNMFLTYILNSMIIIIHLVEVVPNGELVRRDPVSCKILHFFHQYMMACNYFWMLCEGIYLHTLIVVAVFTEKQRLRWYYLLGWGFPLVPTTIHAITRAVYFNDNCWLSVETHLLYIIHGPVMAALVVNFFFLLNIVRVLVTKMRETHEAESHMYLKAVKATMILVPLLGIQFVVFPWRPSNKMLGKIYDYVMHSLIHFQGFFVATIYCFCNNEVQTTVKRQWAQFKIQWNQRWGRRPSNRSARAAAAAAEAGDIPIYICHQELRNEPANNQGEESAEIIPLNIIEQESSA

## CC[C@H](C)[C@H](NC(=O)[C@H](C)NC(=O)CNC(=O)[C@H](Cc1ccccc1)NC(=O)[C@H](CC(N)=O)NC(=O)[C@@H]1CCCN1C(=O)[C@H](CO)NC(=O)[C@H](CO)NC(=O)[C@H](Cc1c[nH]cn1)NC(=O)[C@H](CCCNC(=N)N)NC(=O)[C@H](CC(C)C)NC(=O)[C@H](Cc1ccccc1)NC(=O)[C@H](CC(N)=O)NC(=O)[C@H](C)NC(=O)[C@H](CC(C)C)NC(=O)[C@H](CCCNC(=N)N)NC(=O)[C@H](CCC(N)=O)NC(=O)[C@@H](NC(=O)[C@H](C)NC(=O)[C@@H]1CSSC[C@H](NC(=O)[C@H](CCCCN)NC(=O)CC[C@H](NC(=O)CCCCCCCCCCCCCCCCCCC(=O)O)C(=O)O)C(=O)N[C@@H](CC(N)=O)C(=O)N[C@@H]([C@@H](C)O)C(=O)N[C@@H](C)C(=O)N[C@@H]([C@@H](C)O)C(=O)N1)[C@@H](C)O)C(=O)N1CCC[C@H]1C(=O)N[C@@H](CO)C(=O)N[C@@H](CO)C(=O)N[C@H](C(=O)N[C@@H](CC(N)=O)C(=O)N[C@H](C(=O)NCC(=O)N1CCC[C@H]1C(=O)N[C@@H](CCC(=O)O)C(=O)N[C@H](C(=O)N[C@@H](Cc1ccc(O)cc1)C(N)=O)[C@@H](C)O)C(C)C)[C@@H](C)O [Example 29] ({C20 diacid-γGlu}-KCNTATCATQRLANFLRHSSPNFGAIPSSTNVGPETY-NH2; disulfide 2-7)
[1]; [3]
  Ratio hCT/hAmylin funct.: 8.7
[1]; [4]
  Ratio hCT/hAmylin funct.: 8.7
[1]; [5]
  Ratio hCT/hAmylin funct.: 8.7
[2]
  ThT pH 4.0 lag time (h): 16 h

## CC[C@H](C)[C@H](NC(=O)[C@H](C)NC(=O)CNC(=O)[C@H](Cc1ccccc1)NC(=O)[C@H](CC(N)=O)NC(=O)[C@@H]1CCCN1C(=O)[C@H](CO)NC(=O)[C@H](CO)NC(=O)[C@H](Cc1c[nH]cn1)NC(=O)[C@H](CCCNC(=N)N)NC(=O)[C@H](CC(C)C)NC(=O)[C@H](Cc1ccccc1)NC(=O)[C@H](CCC(=O)O)NC(=O)[C@H](C)NC(=O)[C@H](CC(C)C)NC(=O)[C@H](CCCNC(=N)N)NC(=O)[C@H](CCC(N)=O)NC(=O)[C@@H](NC(=O)[C@H](C)NC(=O)[C@@H]1CSSC[C@H](NC(=O)[C@H](CCCCN)NC(=O)CC[C@H](NC(=O)CCCCCCCCCCCCCCCCCCC(=O)O)C(=O)O)C(=O)N[C@@H](CC(N)=O)C(=O)N[C@@H]([C@@H](C)O)C(=O)N[C@@H](C)C(=O)N[C@@H]([C@@H](C)O)C(=O)N1)[C@@H](C)O)C(=O)N1CCC[C@H]1C(=O)N[C@@H](CO)C(=O)N[C@@H](CO)C(=O)N[C@H](C(=O)N1CCC[C@H]1C(=O)N[C@H](C(=O)NCC(=O)N[C@@H](CO)C(=O)N[C@@H](CC(N)=O)C(=O)N[C@H](C(=O)N[C@@H](Cc1ccc(O)cc1)C(N)=O)[C@@H](C)O)C(C)C)[C@@H](C)O [Example 31] ({C20 diacid-γGlu}-KCNTATCATQRLAEFLRHSSPNFGAIPSSTPVGSNTY-NH2; disulfide 2-7 (inferred))
[1]; [3]
  Ratio hCT/hAmylin funct.: 6.4
[1]; [4]
  Ratio hCT/hAmylin funct.: 6.4
[1]; [5]
  Ratio hCT/hAmylin funct.: 6.4
[2]
  ThT pH 4.0 lag time (h): 45 h

## CC[C@H](C)[C@H](NC(=O)[C@H](C)NC(=O)CNC(=O)[C@H](Cc1ccccc1)NC(=O)[C@H](CC(N)=O)NC(=O)[C@@H]1CCCN1C(=O)[C@H](CO)NC(=O)[C@H](CO)NC(=O)[C@H](Cc1c[nH]cn1)NC(=O)[C@H](CCCNC(=N)N)NC(=O)[C@H](CC(C)C)NC(=O)[C@H](Cc1ccccc1)NC(=O)[C@H](CCC(=O)O)NC(=O)[C@H](C)NC(=O)[C@H](CC(C)C)NC(=O)[C@H](CCCNC(=N)N)NC(=O)[C@H](CCC(N)=O)NC(=O)[C@@H](NC(=O)[C@H](C)NC(=O)[C@@H]1CSSC[C@H](NC(=O)[C@H](CCCCN)NC(=O)CC[C@H](NC(=O)CCCCCCCCCCCCCCCCCCC(=O)O)C(=O)O)C(=O)N[C@@H](CC(N)=O)C(=O)N[C@@H]([C@@H](C)O)C(=O)N[C@@H](C)C(=O)N[C@@H]([C@@H](C)O)C(=O)N1)[C@@H](C)O)C(=O)N1CCC[C@H]1C(=O)N[C@@H](CO)C(=O)N[C@@H](CO)C(=O)N[C@H](C(=O)N[C@@H](CC(N)=O)C(=O)N[C@H](C(=O)NCC(=O)N[C@@H](CCCCN)C(=O)N[C@@H](CC(N)=O)C(=O)N[C@H](C(=O)N[C@@H](Cc1ccc(O)cc1)C(N)=O)[C@@H](C)O)C(C)C)[C@@H](C)O [Example 36] ({C20 diacid-γGlu}-KCNTATCATQRLAEFLRHSSPNFGAIPSSTNVGKNTY-NH2; disulfide 2-7 (inferred))
[1]; [3]
  Ratio hCT/hAmylin funct.: 6.8
[1]; [4]
  Ratio hCT/hAmylin funct.: 6.8
[1]; [5]
  Ratio hCT/hAmylin funct.: 6.8
[2]
  ThT pH 4.0 lag time (h): 45 h

## CC[C@H](C)[C@H](NC(=O)[C@H](C)NC(=O)CNC(=O)[C@H](Cc1ccccc1)NC(=O)[C@H](CC(N)=O)NC(=O)[C@@H]1CCCN1C(=O)[C@H](CO)NC(=O)[C@H](CO)NC(=O)[C@H](Cc1c[nH]cn1)NC(=O)[C@H](CCCNC(=N)N)NC(=O)[C@H](CC(C)C)NC(=O)[C@H](Cc1ccccc1)NC(=O)[C@H](CC(N)=O)NC(=O)[C@H](C)NC(=O)[C@H](CC(C)C)NC(=O)[C@H](CCCNC(=N)N)NC(=O)[C@H](CCC(N)=O)NC(=O)[C@@H](NC(=O)[C@H](C)NC(=O)[C@@H]1CSSC[C@H](NC(=O)[C@H](CCCNC(=N)N)NC(=O)CNC(=O)CC[C@H](NC(=O)CCCCCCCCCCCCCCCCCCC(=O)O)C(=O)O)C(=O)N[C@@H](CC(N)=O)C(=O)N[C@@H]([C@@H](C)O)C(=O)N[C@@H](C)C(=O)N[C@@H]([C@@H](C)O)C(=O)N1)[C@@H](C)O)C(=O)N1CCC[C@H]1C(=O)N[C@@H](CO)C(=O)N[C@@H](CO)C(=O)N[C@H](C(=O)N[C@@H](CC(N)=O)C(=O)N[C@H](C(=O)NCC(=O)N[C@@H](CO)C(=O)N[C@@H](CC(N)=O)C(=O)N[C@H](C(=O)N[C@@H](Cc1ccc(O)cc1)C(N)=O)[C@@H](C)O)C(C)C)[C@@H](C)O [Example 46] ({C20 diacid-γGlu}-GRCNTATCATQRLANFLRHSSPNFGAIPSSTNVGSNTY-NH2; disulfide 3-8 (inferred))
[1]; [3]
  Ratio hCT/hAmylin funct.: 10.2
[1]; [4]
  Ratio hCT/hAmylin funct.: 10.2
[1]; [5]
  Ratio hCT/hAmylin funct.: 10.2
[2]
  ThT pH 4.0 lag time (h): 24 h

## CC[C@H](C)[C@H](NC(=O)[C@H](C)NC(=O)CNC(=O)[C@H](Cc1ccccc1)NC(=O)[C@H](CC(N)=O)NC(=O)[C@@H]1CCCN1C(=O)[C@H](CO)NC(=O)[C@H](CO)NC(=O)[C@H](Cc1c[nH]cn1)NC(=O)[C@H](CCCNC(=N)N)NC(=O)[C@H](CC(C)C)NC(=O)[C@H](Cc1ccccc1)NC(=O)[C@H](CC(N)=O)NC(=O)[C@H](C)NC(=O)[C@H](CC(C)C)NC(=O)[C@H](CCCNC(=N)N)NC(=O)[C@H](CCC(N)=O)NC(=O)[C@@H](NC(=O)[C@H](C)NC(=O)[C@@H]1CSSC[C@H](NC(=O)[C@@H](N)CCCCNC(=O)COCCOCCNC(=O)CC[C@H](NC(=O)CCCCCCCCCCCCCCCCCCC(=O)O)C(=O)O)C(=O)N[C@@H](CC(N)=O)C(=O)N[C@@H]([C@@H](C)O)C(=O)N[C@@H](C)C(=O)N[C@@H]([C@@H](C)O)C(=O)N1)[C@@H](C)O)C(=O)N1CCC[C@H]1C(=O)N[C@@H](CO)C(=O)N[C@@H](CO)C(=O)N[C@H](C(=O)N1CCC[C@H]1C(=O)N[C@H](C(=O)NCC(=O)N[C@@H](CO)C(=O)N[C@@H](CC(N)=O)C(=O)N[C@H](C(=O)N[C@@H](Cc1ccc(O)cc1)C(N)=O)[C@@H](C)O)C(C)C)[C@@H](C)O [Example 49]
[1]; [3]
  Ratio hCT/hAmylin funct.: 22.5
[1]; [4]
  Ratio hCT/hAmylin funct.: 22.5
[1]; [5]
  Ratio hCT/hAmylin funct.: 22.5
[2]
  ThT pH 4.0 lag time (h): 8 h
